PAMPA_Papp_Avg, PAMPA_R1 and PAMPA_R3 data for 7 molecules are collected here from publication PMC9490236, “Accurate de novo design of membrane-traversing macrocycles” (Cell, 2022).

Where a SMILES comes first, the peptide text is derived from it. [ ]: non-standard residue; d: D form. NMeF = CN[C@@H](Cc1ccccc1)C(=O)O; dNMeF = CN[C@H](Cc1ccccc1)C(=O)O; dNMeL = CN[C@H](CC(C)C)C(=O)O; NMeA = CN[C@@H](C)C(=O)O; Nle = CCCC[C@H](N)C(=O)O; dNMeA = CN[C@H](C)C(=O)O

The conditions of the data set: PAMPA.

Take `CC(C)[C@@H]1NC(=O)[C@H](C)NC(=O)[C@H]2CCCN2C(=O)[C@@H](Cc2ccccc2)NC(=O)[C@H]2CCCN2C(=O)[C@@H]2CCCN2C(=O)[C@H](Cc2ccccc2)NC(=O)[C@H](C)NC(=O)[C@H]2CCCN2C1=O` [Design D9.36, VAL DPRO ALA PHE PRO DPRO DPHE DPRO ALA] (cyclo(AFP[dP][dF][dP]AV[dP])): the PAMPA_Papp_Avg result is reported as “BQL”, the PAMPA_R1 entry is given as “BQL” and the PAMPA_R3 entry is “BQL”.
Molecule `CC[C@H](C)[C@@H]1NC(=O)[C@H](Cc2ccccc2)N(C)C(=O)[C@H]2CCCN2C(=O)[C@@H](CC(C)C)N(C)C(=O)[C@@H](Cc2ccccc2)NC(=O)[C@H](C(C)C)NC(=O)[C@H](CC(C)C)NC(=O)[C@H]2CCCN2C(=O)[C@H](CC(C)C)NC(=O)[C@@H]2CCCN2C1=O` [Design D10.50, LEU VAL DPHE *DLEU DPRO *PHE ILE PRO LEU DPRO] (cyclo(IPL[dP]LV[dF][dNMeL][dP][NMeF])) gave a PAMPA_Papp_Avg of 6.28E-07, a PAMPA_R1 of 8.97E-07 and a PAMPA_R3 of 6.88E-07.
On the same counts, the results for `CCCC[C@@H]1NC(=O)[C@H]2CCCN2C(=O)[C@@H]2CCCN2C(=O)[C@@H](C)NC(=O)[C@H]2CCCN2C(=O)[C@@H](C(C)C)NC(=O)[C@H](C(C)C)NC(=O)[C@@H](Cc2ccccc2)N(C)C(=O)[C@H](C)N(C)C1=O` [Design D9.31, PRO DPRO MET *ALA *DPHE VAL DVAL DPRO DALA] (cyclo([NMeA][dNMeF]V[dV][dP][dA]P[dP][Nle])) are 6.86E-08, 6.96E-08 and 5.29E-08.
On the same counts, the results for `CC[C@H](C)[C@@H]1NC(=O)[C@H](Cc2ccccc2)NC(=O)[C@H]2CCCN2C(=O)[C@H]([C@@H](C)CC)NC(=O)[C@H](C(C)C)NC(=O)[C@@H](C)NC(=O)[C@H]2CCCN2C1=O` (single isomer, unassigned) [Design D7.8.p2, VAL ILE DPRO PHE ILE DPRO DALA] are 4.92e-06 cm/s, 4.52e-06 cm/s and 5.64e-06 cm/s.
With `CC[C@H](C)[C@@H]1NC(=O)[C@@H](CC(C)C)NC(=O)[C@H](CC(C)C)NC(=O)[C@H]2CCCN2C(=O)[C@@H]2CCCN2C(=O)[C@H](C)NC(=O)[C@H](Cc2ccccc2)N(C)C(=O)[C@@H](C(C)C)NC(=O)[C@H](Cc2ccccc2)N(C)C(=O)[C@@H](Cc2ccccc2)N(C)C1=O` [Design D10.51, ILE *DPHE *PHE DVAL *PHE ALA PRO DPRO LEU DLEU] (cyclo(AP[dP]L[dL]I[dNMeF][NMeF][dV][NMeF])), the PAMPA_Papp_Avg result was “BQL”, the PAMPA_R1 entry is “BQL” and the PAMPA_R3 entry is given as “BQL”.
In turn, `CCCC[C@@H]1NC(=O)[C@H]2CCCN2C(=O)[C@H](C(C)C)NC(=O)[C@@H](CC(C)C)N(C)C(=O)[C@H](Cc2ccccc2)NC(=O)[C@H](CC(C)C)NC(=O)[C@@H](CC(C)C)N(C)C(=O)[C@@H]2CCCN2C(=O)[C@@H](CC(C)C)NC1=O` [Design D9.40, DPRO MET DLEU PRO *DLEU LEU PHE *DLEU VAL] (cyclo(F[dNMeL]V[dP][Nle][dL]P[dNMeL]L)) returned a PAMPA_Papp_Avg of 2.38E-07, a PAMPA_R1 of 4.18E-07 and a PAMPA_R3 of 1.63E-07.
On the same counts, the results for `CC(C)C[C@@H]1NC(=O)[C@@H](C(C)C)NC(=O)[C@@H]2CCCN2C(=O)[C@H]2CCCN2C(=O)[C@H](Cc2ccccc2)NC(=O)[C@@H](C)NC(=O)[C@@H](CC(C)C)N(C)C(=O)[C@@H]2CCCN2C(=O)[C@H]2CCCN2C(=O)[C@@H](C(C)C)NC(=O)[C@@H](C)N(C)C1=O` [Design D11.12, DVAL DPRO PRO *DLEU DALA PHE DPRO PRO DVAL LEU *DALA] (cyclo([dNMeL][dA]F[dP]P[dV]L[dNMeA][dV][dP]P)) are “BQL”, “BQL” and “BQL”.
